According to US20240408170A1, “COMPOSITION FOR DECOMPOSITION OF TRYPSIN OR TMPRSS2” (Riken, priority 2021, published 2024):
Each block holds one compound with its values, some of them ahead of it.

Legend:
recombinant mouse PRSS2 [1] = molecular target: T1, recombinant mouse PRSS2 (Mus musculus, UniProt P07146); experiment: Trypsin decomposition in vitro by bacteria (western blot); format: biochemical; details: for trypsin-decomposing ability of P. clara (1C4) after pretreating rmPRSS2 with protease inhibitor: rmPRSS2 pretreated 30 minutes with inhibitor; for decomposition of rmPRSS2 (western blot): bacteria or culture supernatant incubated with recombinant mouse trypsin
T1 construct: purchased Sino Biological, Inc. 50383-M08H
T1 sequence (P07146 24-246): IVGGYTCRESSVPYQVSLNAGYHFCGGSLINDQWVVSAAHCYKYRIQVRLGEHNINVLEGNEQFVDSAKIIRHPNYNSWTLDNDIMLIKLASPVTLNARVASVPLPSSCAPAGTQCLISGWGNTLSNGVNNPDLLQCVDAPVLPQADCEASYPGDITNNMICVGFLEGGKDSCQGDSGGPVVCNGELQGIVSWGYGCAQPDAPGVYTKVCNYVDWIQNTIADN
Description: Mouse faecal samples were suspended and diluted 50-fold with phosphate buffered saline (PBS) to which a protease inhibitor cocktail (Roche) was added. Subsequently, the suspended sample was centrifuged at 15,000×g for 10 minutes at 4° C., and the supernatant was subjected to western blot. Mouse pancreatic tissue was rapidly frozen in liquid nitrogen. Proteins were extracted by TRIzol Reagent (Thermo Fisher Scientific K.K.), and the final protein concentration was adjusted to 4 μg/μL. For SDS-PAGE and blotting, Novex (registered trademark) NuPAGE (registered trademark) SDS-PAGE Gel system (Thermo Fisher Scientific K.K.) and iBlot™ 2 Dry Blotting System (Thermo Fisher Scientific K.K.) were used according to the manufacturer's instructions.
The bacteria cultured overnight were incubated with recombinant mouse trypsin (final concentration: 1 μg/mL) for 1 hour or with human trypsin (final concentration: 20 μg/mL) for 4 hours. Recombinant trypsin isoforms used were as follows: recombinant mouse PRSS2 (50383-M08H, Sino Biological, Inc.), recombinant human PRSS1 (LS-G135640), recombinant human PRSS2 (LS-G20167), and recombinant human PRSS3 (His-tag) (NBP2-52220).
In some experiments, recombinant mouse PRSS2 was first treated with one of the following trypsin inhibitors for 30 minutes before incubation with a P. clara culture solution. AEBSF (Sigma-Aldrich, final concentration: 2 mM), Leupeptin (Sigma-Aldrich, final concentration: 100 μM), and TLCK (Abcam plc., final concentration: 100 μM).
In some experiments, P. clara was cultured overnight in the presence of Tunicamycin (Sigma-Aldrich, final concentration: 10 μg/mL), 2-Fluoro-L-fucose (Cayman Chemical Company, final concentration: 250 μM), or the corresponding DMSO control, before incubation with recombinant mouse PRSS2.
In the experiment of evaluating the effect of Ca^2+, P. clara was cultured in a low Ca^2+ mGAM medium supplemented with or without 1 mM of Ca^2+, before incubation with recombinant mouse PRSS2. In the experiment in which the supernatant of P. clara was used, P. clara cultured overnight was filtered through a sterilization filter unit formed using a PVDF film having a pore size of 0.22 μm.

trypsin = experiment: Faecal trypsin activity of GF mice colonized by human microbiota, isolated strain mixtures or P. clara strains; format: in vivo, mouse; details: GF+C#5 mice, antibiotic via drinking
Description: Mouse intestinal contents or a mice faecal sample was diluted 500-fold (w/v) with a 0.9% NaCl solution. Human faeces were diluted 200-fold (w/v) with a 0.9% NaCl solution. The diluted solution was vortexed in a mini shaker for 20 minutes at 2,000 rpm, homogenized by pipetting, and then centrifuged at 10,000×g for 15 minutes at 4° C. Subsequently, the supernatant was recovered to measure the trypsin activity by a Trypsin Activity Assay Kit (Colorimetric) for 100 tests (ab102531) according to the manufacturer's protocol. The absorbance at 405 nm was measured in a kinetic mode by using a PerkinElmer 2030 Multilabel Reader.
Human faecal samples were collected at RIKEN and Keio University according to a research protocol approved by the Research Ethics Review Committee. Informed consent was obtained from each subject. A human faecal sample (preserved in 20% (v/v) glycerol) was transferred to an anaerobic chamber, thawed, and then sieved with a 100 μm mesh, transferred to a GF isolator, and orally administered to GF mice by 200 μL/mouse.
For an antibiotic treatment, each solution of 0.5 g/L ampicillin (Nacalai Tesque, Inc.), 0.5 g/L metronidazole (Nacalai Tesque, Inc.), and 1.0 g/L tylosin (Sigma-Aldrich) was produced with autoclaved tap water. The antibiotic solution was given, for 12 days, to mice to which the faecal contents derived from a donor C were orally administered. The antibiotic solution was changed once a week.
The isolated strains except for Phasolactobacterium faecium (3G4) were cultured in an anaerobic chamber at a temperature of 37° C. for 1 to 2 days. Phasolactobacterium faecium was cultured for 2 to 3 days in an Oxoid CM0619 agar plate to which 80 mM sodium succinate was added. The colonies were recovered and resuspended in EGEF. The bacterial density was adjusted based on an OD600 value, and the mixture of the cultured strains was orally administered to GF mice (150 μL/mouse, total bacterial count: about 1 to 2×10^8 CFU).

recombinant mouse PRSS2 [2] = molecular target: T1, recombinant mouse PRSS2; experiment: Binding of Alexa Fluor 488-labeled rmPRSS2 to the surface of bacteria (confocal microscope)
Description: Recombinant mouse PRSS2 was labeled with Alexa Fluor™ 488 using an Alexa Fluor™ 488 Antibody Labeling Kit (Δ20181, Thermo Fisher Scientific K.K.), and was pretreated with an AEBSF inhibitor (150 μg/mL rmPRSS2 with 20 mM AEBSF).
Mouse PRSS2 labeled with Alexa Fluor™ 488 was incubated in an anaerobic chamber for 20 minutes with bacteria cultured at a final concentration of 5 μg/mL. The mixture was centrifuged, washed once with PBS, and then resuspended in PBS. A Leica TCS SP8 confocal microscope was used for capturing a confocal image.

IgA heavy chain = experiment: Ex vivo incubation of mouse faeces at 37° C. for 48 hours, western blot; details: GF faeces mixed with 2-mix+WT faeces, trypsin inhibitor added
Description: Mouse faecal samples were suspended and diluted 50-fold with phosphate buffered saline (PBS) to which a protease inhibitor cocktail (Roche) was added. Subsequently, the suspended sample was centrifuged at 15,000×g for 10 minutes at 4° C., and the supernatant was subjected to western blot. Mouse pancreatic tissue was rapidly frozen in liquid nitrogen. Proteins were extracted by TRIzol Reagent (Thermo Fisher Scientific K.K.), and the final protein concentration was adjusted to 4 μg/μL. For SDS-PAGE and blotting, Novex (registered trademark) NuPAGE (registered trademark) SDS-PAGE Gel system (Thermo Fisher Scientific K.K.) and iBlotTM 2 Dry Blotting System (Thermo Fisher Scientific K.K.) were used according to the manufacturer's instructions. The antibodies used are as follows. A rabbit anti-mouse PRSS2 antibody (Cosmo Bio Co., Ltd.), a rabbit anti-mouse HSP90 antibody (#4877, Cell Signaling Technology, Inc.), a rabbit anti-human PRSS2 antibody (LS-B15726, LSBio), a rabbit anti-human PRSS1 antibody (LS-331381, LSBio), a rabbit anti-mouse TMPRSS2 antibody (LS-C373022, LSBio, against the sequence of the protease domain), a rabbit anti-6-His antibody ([…]-[…], Bethyl Laboratories, Inc.), a goat anti-mouse IgA a chain antibody (HRP) (ab97235, Abcam plc.), a rat anti-mouse κ chain antibody (HRP) (ab99632, Abcam plc.), a rabbit anti-mouse CELA3b antibody (OACD03205, Aviva Systems Biology Corporation), an anti-rabbit IgG antibody (HRP) (#7074, Cell Signaling Technology, Inc.), and a rabbit anti-mouse Reg3 antibody (51153-[…], Sino Biological, Inc.).

Compound: NCCc1ccc(S(=O)(=O)F)cc1 [AEBSF, reference compound]
trypsin-decomposing ability of P. clara (1C4) after pretreating rmPRSS2 with protease inhibitor (recombinant mouse PRSS2 [1]): lost

Compound: Prevotella stercorea [reference compound]
decomposition of rmPRSS2 (western blot) (recombinant mouse PRSS2 [1]): did not decrease the trypsin activity

Compound: Cc1ncc([N+](=O)[O-])n1CCO [MNZ, metronidazole]
faecal trypsin activity (trypsin): no decrease

Compound: Prevotella denticola [reference compound]
decomposition of rmPRSS2 (western blot) (recombinant mouse PRSS2 [1]): did not decrease the trypsin activity | binding of rmPRSS2 to the surface of bacteria (recombinant mouse PRSS2 [2]): no accumulation of trypsin was observed

decomposition of rmPRSS2 (western blot) (recombinant mouse PRSS2 [1]): potent trypsin-reducing ability
Compound: Paraprevotella xylaniphila [P. xylaniphila (JCM 14860) strain]

decomposition of rmPRSS2 (western blot) (recombinant mouse PRSS2 [1]): had a trypsin-decomposing activity
Compound: Prevotella muris [Prevotella muris strain]

Compound: CC1(C)S[C@@H]2[C@H](NC(=O)[C@H](N)c3ccccc3)C(=O)N2[C@H]1C(=O)O [Amp, Ampicillin]
faecal trypsin activity (trypsin): more decreased

decomposition of rmPRSS2 (western blot) (recombinant mouse PRSS2 [1]): had a trypsin-decomposing activity
Compound: Prevotella rara [Prevotella rara (MSP 0081) strain]

Compound: CC[C@H]1OC(=O)C[C@@H](O)[C@H](C)[C@@H](O[C@@H]2O[C@H](C)[C@@H](O[C@H]3C[C@@](C)(O)[C@@H](O)[C@H](C)O3)[C@H](N(C)C)[C@H]2O)[C@@H](CC=O)C[C@@H](C)C(=O)/C=C/C(C)=C/[C@@H]1CO[C@@H]1O[C@H](C)[C@@H](O)[C@@H](OC)[C@H]1OC [Tyl, tylosin]
faecal trypsin activity (trypsin): no decrease

decomposition of rmPRSS2 (western blot) (recombinant mouse PRSS2 [1]): had a trypsin-decomposing activity
Compound: Prevotella rodentium [Prevotella rodentium strain]

Compound: Prevotella oulorum [reference compound]
decomposition of rmPRSS2 (western blot) (recombinant mouse PRSS2 [1]): did not decrease the trypsin activity | binding of rmPRSS2 to the surface of bacteria (recombinant mouse PRSS2 [2]): no accumulation of trypsin was observed

Compound: Cc1ccc(S(=O)(=O)N[C@@H](CCCCN)C(=O)CCl)cc1 [TLCK, reference compound]
trypsin-decomposing ability of P. clara (1C4) after pretreating rmPRSS2 with protease inhibitor (recombinant mouse PRSS2 [1]): lost | decomposition of IgA heavy chain in mixed faeces (IgA heavy chain): inhibited the decomposition of the IgA heavy chain

decomposition of rmPRSS2 (western blot) (recombinant mouse PRSS2 [1]): effect of reducing trypsin
Compound: Paraprevotella clara [P237E3b]

Compound: Prevotella copri [reference compound]
decomposition of rmPRSS2 (western blot) (recombinant mouse PRSS2 [1]): did not decrease the trypsin activity

Compound: tunicamycin [reference compound]
decomposition of rmPRSS2 by P. clara pretreated with sugar chain synthesis inhibitor (recombinant mouse PRSS2 [1]; P. clara cultured overnight with inhibitor): no decomposition of trypsin was observed | binding of rmPRSS2 to the surface of P. clara treated with sugar chain synthesis inhibitor (recombinant mouse PRSS2 [2]): no accumulation of trypsin on the surface

decomposition of rmPRSS2 (western blot) (recombinant mouse PRSS2 [1]): effect of reducing trypsin
Compound: Paraprevotella clara [P322B5]

Compound: CC(=O)N[C@@H](CC(C)C)C(=O)N[C@@H](CC(C)C)C(=O)N[C@H](C=O)CCCNC(=N)N [leupeptin, reference compound]
trypsin-decomposing ability of P. clara (1C4) after pretreating rmPRSS2 with protease inhibitor (recombinant mouse PRSS2 [1]): lost
